The values below come from US20080033006A1, “1,2,4-Triazolo[ 1,5-A] Pyridines as Gastric Acid Secretion Inhibitors” (Altana Pharma AG, priority 2004, published 2008).

The test system of data set [1] is pentagastrin-stimulated acid secretion of the perfused rat stomach. Kind of data set: Secretion-inhibiting action on the perfused rat stomach (pentagastrin-stimulated acid secretion). The class given is in vivo. The note with it: anesthetized CD rat, dose 1 μmol/kg i.d.; for inhibition in vivo at 1 µmol/kg: intraduodenal. The text has this: In Table A which follows, the influence of the compounds according to the invention on the pentagastrin-stimulated acid secretion of the perfused rat stomach after intraduodenal administration in vivo is shown.
The abdomen of anesthetized rats (CD rat, female, 200-250 g; 1.5 g/kg i.m. urethane) was opened after tracheotomy by a median upper abdominal incision and a PVC catheter was fixed transorally in the esophagus and another via the pylorus such that the ends of the tubes just projected into the gastric lumen. The catheter leading from the pylorus led outward into the right abdominal wall through a side opening.
After thorough rinsing (about 50-100 ml), warm (37° C.) physiological NaCl solution was continuously passed through the stomach ([…], pH 6.8-6.9; Braun-Unita I). The pH (pH meter 632, glass electrode EA 147; φ=5 mm, Metrohm) and, by titration with a freshly prepared 0.01N NaOH solution to pH 7 (Dosimat 665 Metrohm), the secreted HCl were determined in the effluent in each case collected at an interval of 15 minutes.
The gastric secretion was stimulated by continuous infusion of 1 μg/kg (=1.65 ml/h) of i.v. pentagastrin (left femoral vein) about 30 min after the end of the operation (i.e. after determination of 2 preliminary fractions). The substances to be tested were administered intraduodenally in a 2.5 ml/kg liquid volume 60 min after the start of the continuous pentagastrin infusion.
The body temperature of the animals was kept at a constant 37.8-38° C. by infrared irradiation and heat pads (automatic, stepless control by means of a rectal temperature sensor).

Compound `CCc1cccc(C)c1CNc1cc(C(=O)OC)cn2nc(C)nc12` [Example 1, 8-(2-Ethyl-6-methylbenzylamino)-2-methyl[1,2,4]triazolo[1,5-a]pyridine-6-carboxylic acid methyl ester] returned a melting point of 139.8 °C.
On the same count and under the same terms, with `CCc1cccc(C)c1CNc1cc(C(=O)O)cn2nc(C)nc12` [Example 2, 8-(2-Ethyl-6-methyl-benzylamino)-2-methyl[1,2,4]triazolo[1,5-a]pyridine-6-carboxylic acid] the figure was 264.1 °C.
On to `CCc1cccc(C)c1CNc1cc(C(=O)N(C)C)cn2nc(C)nc12` [Example 3, 8-(2-Ethyl-6-methylbenzylamino)-N,N,2-trimethyl[1,2,4]triazolo[1,5-a]pyridine-6-carboxamide], for which, in data set [1], the inhibition in vivo at 1 µmol/kg is > 25%.
For the compound `CCc1cccc(C)c1CNc1cc(C(=O)NCCOC)cn2nc(C)nc12` [Example 4, 8-(2-Ethyl-6-methylbenzylamino)-N-(2-methoxyethyl)-2-methyl[1,2,4]triazolo-[1,5a]-pyridine-6-carboxamide], the “Inhibition of acid secretion” value in data set [1] is reported as <25%.
As to `CCc1cccc(C)c1CNc1cc(COC)cn2nc(C)nc12` [Example 5, 8-(2-Ethyl-6-methylbenzylamino)-6-methoxymethyl-2-methyl[1,2,4]triazolo-[1,5-a]pyridine], the melting point turned out to be 98.7 °C. Further, the inhibition in vivo at 1 µmol/kg in data set [1] is > 25%.
The compound `CCc1cccc(C)c1CNc1cc(CO)cn2nc(C)nc12` [Example 6, 8-(2-Ethyl-6-methylbenzylamino)-6-hydroxymethyl-2-methyl[1,2,4]triazolo-[1,5-a]pyridine] gave a melting point of 180.3 °C. Besides, in data set [1], the inhibition in vivo at 1 µmol/kg is < 25%.
The corresponding values for `CCc1cccc(C)c1CNc1cc(CN(C)C)cn2nc(C)nc12.Cl` [Example 7, 8-(2-Ethyl-6-methylbenzylamino)-6-dimethylaminomethyl-2-methyl[1,2,4]triazolo[1,5-a]pyridine hydrochloride] are 235.8 °C and > 25%.
`CCc1cccc(C)c1CNc1cc(CNC)cn2nc(C)nc12` [Example 8, 8-(2-Ethyl-6-methylbenzylamino)-6-methylaminomethyl-2-methyl[1,2,4]triazolo-[1,5-a]-pyridine]: the melting point was found to be 179 °C. The inhibition in vivo at 1 µmol/kg in data set [1] is > 25%.
As for `CCc1cccc(C)c1CNc1cc(CN)cn2nc(C)nc12` [Example 9, 8-(2-Ethyl-6-methylbenzylamino)-6-aminomethyl-2-methyl[1,2,4]triazolo-[1,5-a]pyridine], the inhibition in vivo at 1 µmol/kg in data set [1] was < 25%.
The compound `CCc1cccc(C)c1CNc1cc(CN2CCOCC2)cn2nc(C)nc12` [Example 10, 8-(2-Ethyl-6-methylbenzylamino)-6-morpholinomethyl-2-methyl[1,2,4]triazolo-[1,5-a]-pyridine] showed a melting point of 97.2 °C. For the same compound, the inhibition in vivo at 1 µmol/kg in data set [1] is < 25%.
`CCc1cccc(C)c1CNc1cc(Cn2ccnc2)cn2nc(C)nc12` [Example 11, 8-(2-Ethyl-6-methylbenzylamino)-6-(imidazol-1-ylmethyl)-2-methyl[1,2,4]triazolo-[1,5-a]-pyridine]: the melting point is 158.5 °C. Besides, the inhibition in vivo at 1 µmol/kg in data set [1] is > 25%.
The corresponding values for `CCc1cccc(C)c1CNc1cc(COCCOC)cn2nc(C)nc12.Cl` [Example 13, 8-(2-Ethyl-6-methylbenzylamino)-6-(2-methoxyethoxymethyl)-2-methyl-[1,2,4]triazolo[1,5-a]pyridine hydrochloride] are 120.2 °C and > 25%.

Broadly, the melting point is the temperature, or range, at which the solid turns liquid. One may read the inhibition in vivo as how much of the control response was suppressed. A higher inhibition in vivo goes with a strong effect.
